Legend:
[1] = tested on: human retinal pigment epithelial (RPE) cells deficient in 15-LOX-D1; assay: Oxidative stress (OS) induced apoptosis / cell death in 15-LOX-1-deficient human RPE cells; type: cell-based
Excerpt: (§1) FIG. 4. (A) Cytoprotective effects of NPD1 like compounds on OS induced apoptosis. The results shown in this figure compare the cytoprotective capacities of long chain polyunsaturated fatty acids (VLC-PUFA), elovanoids ELV1 and ELV2, and neuroprotectin D1 (NPD1) in human retinal pigment epithelial (RPE) cells deficient in 15-LOX-D1 by measuring the protection of cell deaths induced by oxidative stress (OS) by these compounds. […] (B) Elovanoid precursors protect human retinal pigment epithelial cells deficient in 15-LOX-1, unlike DHA, from oxidative stress conditions.
(§2) FIG. 5. (A) Effect of PD146176 on VLC-PUFA-inhibited apoptosis induced by OS in ARPE-19 cells. […] It is evident that 32:6 and 34:6 LCAF were able to induce a substantial amount (55 and 48% respectively) of neuroprotection compared to PD 146176 (22%) when the stressed cells were treated with 5 μm of 15-LOX-D1 inhibitor. It can be concluded that since PD146176 is the inhibitor of 15-lipooxygenase enzyme, it might be protecting the stressed RPE cells by accumulating neuroprotective agents inside the cells. (B) Comparison of cytoprotective capacities of NPD1, C32:6 and C34:6 VLC-PUFA on oxidative stress-induced apoptosis in 15-LOX-1 cells. Shown here is the comparison of neuroprotection in a 15-LOX-1-deficient cell line under oxidative stress with 32:6 and 34:6 VLC-PUFA along with NPD1. 32:6 and 34:6 LCAF were able to induce neuroprotection (45% and 40% respectively), as compared to oxidative stress (90%) under this condition. (C) Concentration dependent cytoprotection by C32:6 and C34:6 VLC-PUFA in oxidative-stress induced ARPE-19 cells. A concentration (50-500 nM) kinetic of cytoprotection induced by LCAF 32:6 and 34:6 in RPE cell culture under OS was shown here. […] We decided to use 250 nM concentrations of 32:6 and 34:6 LCAF in subsequent experiments. (D) Selected images of alive and dead cells from this study (control, OS, treatment with C32:6).
as §1, with “Evidence of cytoprotection by 32.6 and 34.6 VLC-PUFA in oxidative-stress induced ARPE-19 cells as detailed in (FIG. 4): (A) Cytoprotective” for “FIG. 4. (A) Cytoprotective”, “capacities of very long chain” for “capacities of long chain”
FIG. 5—(A) Effect of PD146176 on VLC-PUFA inhibited apoptosis induced by OS in ARPE-19 cells. […] It is evident that 32:6 and 34:6 LCAF were able to induce a substantial amount (55 and 48% respectively) of neuroprotection compared to PD 146176 (22%) when the stressed cells were treated with 5 μm of 15-LOX-D1 inhibitor. It can be concluded that since PD146176 is the inhibitor of 15-lipooxygenase enzyme, it might be protecting the stressed RPE cells by accumulating neuroprotective agents inside the cells. (B) Comparison of cytoprotective capacities of NPD1, C32:6 and C34:6 VLC-PUFA on oxidative stress-induced apoptosis in 15-LOX-1 cells. Shown here is the comparison of neuroprotection in a 15-LOX-1-deficient cell line under oxidative stress with 32:6 and 34:6 VLC-PUFA along with NPD1. 32:6 and 34:6 VLC-PUFA were able to induce neuroprotection (45% and 40% respectively), as compared to oxidative stress (90%) under this condition. (C) Concentration dependent cytoprotection by C32:6 and C34:6 VLC-PUFA in oxidative-stress induced ARPE-19 cells. A concentration (50-500 nM) kinetic of cytoprotection induced by VLC-PUFA 32:6 and 34:6 in RPE cell culture under OS was shown here. […] We decided to use 250 nM concentrations of 32:6 and 34:6 VLC-PUFA in subsequent experiments. […]

[2] = tested on: ARPE-19 cells; assay: Oxidative stress induced apoptosis / cell death in ARPE-19 cells; type: cell-based, human; conditions: for concentration dependent cytoprotection (FIG. 5C): ARPE-19 under OS
Protocol: as §2
FIG. 5—(A) Effect of PD146176 on VLC-PUFA inhibited apoptosis induced by OS in ARPE-19 cells. […] It is evident that 32:6 and 34:6 LCAF were able to induce a substantial amount (55 and 48% respectively) of neuroprotection compared to PD 146176 (22%) when the stressed cells were treated with 5 μm of 15-LOX-D1 inhibitor. It can be concluded that since PD146176 is the inhibitor of 15-lipooxygenase enzyme, it might be protecting the stressed RPE cells by accumulating neuroprotective agents inside the cells. (B) Comparison of cytoprotective capacities of NPD1, C32:6 and C34:6 VLC-PUFA on oxidative stress-induced apoptosis in 15-LOX-1 cells. Shown here is the comparison of neuroprotection in a 15-LOX-1-deficient cell line under oxidative stress with 32:6 and 34:6 VLC-PUFA along with NPD1. 32:6 and 34:6 VLC-PUFA were able to induce neuroprotection (45% and 40% respectively), as compared to oxidative stress (90%) under this condition. (C) Concentration dependent cytoprotection by C32:6 and C34:6 VLC-PUFA in oxidative-stress induced ARPE-19 cells. A concentration (50-500 nM) kinetic of cytoprotection induced by VLC-PUFA 32:6 and 34:6 in RPE cell culture under OS was shown here. […] We decided to use 250 nM concentrations of 32:6 and 34:6 VLC-PUFA in subsequent experiments. (D) Selected images of alive and dead cells from this study (control, OS, treatment with C32:6).

Row | Compound | neuroprotection (FIG. 5B) ([1]; 15-LOX-1-deficient cell line under oxidative stress, compared to oxidative stress (90%)) [%] | protection against cell death under oxidative stress conditions (FIG. 4B) ([1]; 15-LOX-D1 cells under oxidative stress) | concentration dependent cytoprotection (FIG. 5C) ([2]; 250 nM) | concentration dependent cytoprotection (FIG. 5C) ([2]; 500 nM) | protection against OS in RPE cells (summary, FIGS. 4-10) ([2]; RPE cells) | concentration dependent cytoprotection (FIG. 5C) ([2]; starting from 50 nM) | neuroprotection (FIG. 5A) ([2]; stressed ARPE-19 cells treated with 5 μm of 15-LOX-D1 inhibitor PD146176) [%] | activity against OS relative to the related VLC-PUFA (FIG. 4) ([1]; as sodium salts or methyl esters)
1 | CC/C=C\C/C=C\C/C=C\C/C=C\C/C=C\C/C=C\CCCCCCCCCCCCCCC(=O)O [C34:6] | 40 | protect against cell death | very good intermediate effect | maximum effect | protective against OS | gradual decrease of cell deaths | 48 | 
2 | CC/C=C\C[C@H](O)\C=C/C=C/C=C/[C@H](O)C/C=C\C/C=C\CCCCCCCCCCCCCCC(=O)O [ELV2, (16Z,19Z,22R,23E,25E,27Z,29S,31Z)-22,29-dihydroxytetratriaconta-16,19,23,25,27,31-hexaenoic acid] |  |  |  |  |  |  |  | more potent activity against OS than the related VLC-PUFA
